In patent publication US20100004333A1, “COMPOSITIONS AND METHODS FOR TREATING CARDIOVASCULAR DISORDERS” (priority 2004, published 2010):

What was measured:
[1] = Stopped-flow kinetics of reaction with HOCl in 70% aqueous ethanol; assay type: physicochemical; conditions: 70% EtOH, 25° C.
[2] = system: aortic rings from rabbits; assay type: cell-based, New Zealand White rabbits; conditions: for Protection of aortic rings from HOCl-induced loss of response to ACh: 10 min pre-incubation with 10, 25 or 100 μM, FIG. 7
Method: All other reagents were of the highest quality available. Buffers were routinely filtered, argon-flushed and stored at 4° C. prior to use. Solutions of HOCl were prepared freshly before use by diluting reagent HOCl (Aldrich) into phosphate buffer (250 mM, pH 7.0) and standardizing with ε235 nm˜100 M^−1cm^−1 (hypochlorous acid) and ε290 nm˜300 M^−1cm^−1 (hypochlorite), as described in Journal of Physical Chemistry 1966, 70:3798-3805. Animals: New Zealand White rabbits (2.5-3 kg) were obtained from a commercial farm (Wauchope, NSW Australia) and housed individually for the entire study period. […] Feed and water were provided ad libitum for a period of 4 weeks judged to be sufficient time for circulating drug levels to reach a maximum (data not shown). […] The local ethics committee approved the study. Vascular reactivity: Perfused rabbit aortas were harvested and vascular reactivity studies performed as described in Circulation 2003, 107:2031-2036. Briefly, within 2 h of isolation, ring segments ˜5 mm in length were mounted in a myobath system (World Precision Instruments, Sarasota, Fla.) containing 20 mL of Krebs solution aerated at 37° C. with 5% CO2(g), and the dilatory response of half maximally norepinephrine pre-constricted rings to incremental doses of ACh (10^−9-10^−5 mol/L) determined. Where indicated, reagent HOCl (final concentration 400 μM) was added to the Krebs solution and the rings incubated for 5 min prior to thorough washing, pre-constriction and assessment of vessel relaxation. In some studies rings were incubated with probucol or DTBP for 10 min, washed thoroughly and then exposed to HOCl prior to assessing endothelium-dependent relaxation. A maximum of three consecutive sequences of constriction/relaxation were performed for each ring. […] Probucol oxidation studies: Probucol is a highly lipophilic compound (partition coefficient between octanol and water=[…]) that readily distributes into lipoproteins. […] The aqueous phase was analyzed for the content of sulfate anion (SO4^2−) by ion exchange chromatography (see below). Analytical analyses: Probucol, DTBP, BP and DPQ were analyzed by gradient reversed-phase HPLC and quantified by peak area comparison with authentic standards. […] Other oxidation products resolved by this HPLC system were also quantified by peak area comparison, using analytically pure samples obtained from semi-preparative (LC-18, 20 mm×25 cm, 5 μm) fractionation of the reaction mixture. Isolated samples were dried under vacuum, re-dissolved to a known concentration and assessed for purity by analytical HPLC (LC-18, 4.6 mm×25 cm, 5 μm) in combination with mass spectrometry (see below). […]

[3] = Oxidation of probucol or DTBP in hexane by 1e- and 2e-oxidants (HPLC, ion exchange chromatography); assay type: physicochemical; conditions: compound 1 mM in hexane, 60 min, 37° C.
[4] = system: New Zealand White rabbits; experiment: Rabbit aortic balloon-injury model with heme oxygenase blocked by tin protoporphyrin; assay type: in vivo; conditions: plus tin protoporphyrin 7.5 mg/kg i.p. every other day; for Ability to inhibit intimal thickening when heme oxygenase is blocked: nine weeks, FIG. 19a; for Ability to promote re-endothelialization when heme oxygenase is blocked: FIG. 19b; for Ability to inhibit vascular smooth muscle cell proliferation when heme oxygenase is blocked: FIG. 19c
Method: Inhibition of heme oxygenase activity. Three groups of male New Zealand White rabbits (n=6 per group) that were fed 100 g per day of normal chow±1% probucol or 0.02% DTBP (wt/wt) received intraperitoneal injection of tin protoporphyrin (SnPP, Frontier Scientific, 7.5 mg/kg) every other day as described in American Journal of Physiology, Heart and Circulatory Physiology 2000; 278:H623-H632 for the entire nine week duration of the experiment, with balloon injury at the end of week three and lesion assessment after a further six weeks.

[5] = system: New Zealand White rabbits; experiment: Re-endothelialization and vascular reactivity after aortic balloon injury in rabbits; assay type: in vivo; conditions: for Endothelium-dependent relaxation (acetylcholine) / Tissue content of cGMP in response to acetylcholine: aortic rings six weeks after injury; for Endothelium-dependent relaxation (acetylcholine): FIG. 15c; for Tissue content of cGMP in response to acetylcholine: FIG. 15d; for Regeneration of endothelium (length covered by CD31+ cells) / Intima-to-media ratio at CD31-positive sites: six weeks after injury; for Regeneration of endothelium (length covered by CD31+ cells): FIG. 15b; for Intima-to-media ratio at CD31-positive sites: not shown

SMILES | Protection of aortic rings from HOCl-induced loss of response to ACh ([2]; washed, then 400 μM HOCl) | DPQ Yield ([3]; oxidant AAPH 5 mM) [µM] | DPQ Yield ([3]; oxidant Ce^4+ 5 mM) [µM] | Depletion ([3]; oxidant Ce^4+ 5 mM) [%] | DPQ Yield ([3]; oxidant Cu^2+ 5 mM) [µM] | Depletion ([3]; oxidant Cu^2+ 5 mM) [%] | DPQ Yield ([3]; oxidant Fe^2+/H2O2 5 mM) [µM] | Depletion ([3]; oxidant Fe^2+/H2O2 5 mM) [%] | DPQ Yield ([3]; oxidant H2O2 5 mM) [µM] | Depletion ([3]; oxidant H2O2 5 mM) [%] | DPQ Yield ([3]; oxidant HOCl 5 mM) [µM] | DPQ Yield ([3]; oxidant ONOO^− 5 mM) [µM] | Depletion ([3]; oxidant ONOO^− 5 mM) [%] | DPQ Yield ([3]; oxidant PbO2 5 mM) [µM] | Depletion ([3]; oxidant PbO2 5 mM) [%] | Ability to inhibit intimal thickening when heme oxygenase is blocked [4] | Ability to promote re-endothelialization when heme oxygenase is blocked [4] | Ability to inhibit vascular smooth muscle cell proliferation when heme oxygenase is blocked [4] | Endothelium-dependent relaxation (acetylcholine) [5] | Tissue content of cGMP in response to acetylcholine [5] | other results
CC(C)(Sc1cc(C(C)(C)C)c(O)c(C(C)(C)C)c1)Sc1cc(C(C)(C)C)c(O)c(C(C)(C)C)c1 [probucol] | protected the vessels from HOCl-induced loss of response to ACh in a concentration dependent manner | 0 ± 0 | 78 ± 7.9 | 15 ± 2 | 0.9 ± 0.1 | 2 ± 1 | 8.7 ± 1.7 | 3 ± 1 | 0 ± 0 | 0 ± 0 | 102 ± 11 | 2.1 ± 0.2 | 7 ± 1 | 92 ± 21 | > 90 | completely prevented | completely prevented | completely prevented | enhanced | enhanced | Rate constant k1 for oxidation by HOCl (rapid phase of DPQ accumulation) [1]: 2.7±0.3×10^2 M^−1 s^−1; Rate constant k2 for oxidation by HOCl (slow phase of DPQ accumulation) [1]: 0.7±0.2×10^2 M^−1 s^−1; Concentration at which full protection from HOCl-induced loss of response to ACh was seen ([2]; 10 min pre-incubation, washed, then 400 μM HOCl): 100 µM; Tissue cGMP in response to ACh ([2]; rings pre-treated with 100 μM, FIG. 7B): increased tissue content of cGMP; Depletion ([3]; oxidant HOCl 5 mM, air): 98 ± 4%; Depletion ([3]; oxidant PbO2 5 mM, listed as Probucol): 99 ± 1.1%; Regeneration of endothelium (length covered by CD31+ cells) [5]: significantly enhanced; Intima-to-media ratio at CD31-positive sites [5]: significantly decreased
CC(C)(C)c1cc(SSc2cc(C(C)(C)C)c(O)c(C(C)(C)C)c2)cc(C(C)(C)C)c1O [DTBP, 4,4′-dithiobis(2,6-di-tert-butyl-phenol)] | protected aortic rings from HOCl-induced dysfunction when added in vitro | 0 ± 0 | 89 ± 11 | 16 ± 1 | 0 ± 0 | 0 ± 0 | 4.8 ± 3.7 | 1 ± 0 | 0 ± 0 | 0 ± 0 | 91 ± 8.7 | 1.9 ± 0.6 | 6 ± 1 | 145 ± 8.9 | 99 ± 0.4 | completely prevented | completely prevented | completely prevented | enhanced | enhanced | Rate constant k for oxidation by HOCl (single rate-determining process) [1]: 0.7±0.1×10^2 M^−1 s^−1; Regeneration of endothelium (length covered by CD31+ cells) [5]: significantly enhanced; Intima-to-media ratio at CD31-positive sites [5]: significantly decreased
